The source of these data is patent publication US7816397B2, “Phenylcarboxylic acid derivatives and use thereof for the treatment of diabetes” (Merck Patent GmbH, priority 2004, dated 2010).

One experiment concerns INS-1 cells. The experiment in a line: Insulin secretion test on INS-1 cells. As to conditions: Rattus norvegicus, INS1, test compound concentration 10^−5 M, read-out: INS-1 Test concentration 10^−5 M % (Sec INS, percentage of insulin secretion). The experiment is classed as cell-based. An excerpt: Insulin Secretion Test on INS-1 Cells
According to the method described in Endocrinology, 1992 vol. 130 (1) pp. 167-178
Sec INS corresponds to the percentage of insulin secretion.
C corresponds to the concentration of test compound according to the invention.

Experiment [1] concerns isolated islets of Langerhans. Kind of experiment: Insulin secretion test on islets isolated from rats (static incubation, stimulation factor). The format is cell-based. As to conditions: 90 minutes incubation, glucose 2.8 mM or 8 mM (not given), stimulates if factor >= 130%; for Isolated islets 10^−5 M (stimulation factor of insulin secretion): compound 10^−5 M; for Isolated islets 10^−7 M (stimulation factor of insulin secretion): compound 10^−7 M. The procedure:
Insulin Secretion Test on Islets Isolated from Rats
The effect of the compounds on insulin secretion as a function of the glucose concentration was tested, in vitro, in isolated islets of Langerhans in static incubation.
The islets Langerhans obtained by digestion of exocrine pancreatic tissue with collagenase, followed by purification on a Ficoll gradient, are incubated for 90 minutes in the presence of two concentrations of glucose (2.8 mM or 8 mM), in the presence or absence of the chemical compound. The insulin secretion is assayed by RIA in the incubation medium.
The potential of the various chemical compounds to stimulate insulin secretion is estimated by calculating the stimulation factor*.
A compound stimulates insulin secretion if this factor is greater than or equal to 130% for a given dose of glucose.
G=insulin secretion (pmol/min. islet) in the presence of glucose alone
G+P=insulin secretion (pmol/min. islet) in the presence of the same concentration of glucose and of the test compound.

The subject of another experiment is n0-STZ/sucrose rats. The experiment in a line: In vivo oral glucose tolerance test (OGTT) after daily treatment for 7 days. Also noted: species or system Rats Wistar. The settings on record: 100 mg/kg/day for 7 days. On the procedure:
To evaluate the effect of 2-{2-[4-(4-chlorobenzenesulfonylamino)phenyl]-ethyl}benzoic acid (compound 522) on the glucose tolerance of n0-STZ/sucrose rats, after a daily treatment for 7 days.
Rats Wistar (origin: Charles River, France), which received an injection of streptozotocin (100 mg/kg i.v.) on the day of birth. On their arrival at the Research Centre, at seven weeks old:
• 9 rats were placed on a standard diet (A04, SAFE). • 19 rats were placed on a sucrose-rich diet (58% sucrose, SAFE).
After 2 months on the diet, the rats on the sucrose diet were divided randomly into 2 subgroups (control diabetic, treated diabetic).
The three groups were then treated daily for 7 days, with excipient (0.5% methylcellulose solution) for the control group (healthy animals) and the diabetic control group, or with product (compound 522, 100 mg/kg/day) for the third group.
Glucose Tolerance Test (OGTT):
After treatment for 7 days, the animals were fasted for 3 hours before the start of the test. Samples were taken from the tail of the conscious rats. The first blood sample was taken 10 minutes before the administration of glucose (2 g/kgbody weight/oral route). Blood was then taken 10, 20, 30, 45, 60, 90 and 120 minutes after the administration of glucose.
The glucose tolerance was evaluated by means of the ΔAUC glc, which represents the cumulative increase in glycaemia above the basal value over the 120 minutes of the test.
The insulin response to glucose was estimated by means of the ΔAUC Ins, which represents the cumulative increase in insulinaemia above the basal value over the 120 minutes of the test.

On to `Cc1cc(C)c(S(=O)(=O)Nc2ccccc2CCCc2ccccc2C(=O)O)c(C)c1` [Compound 121], for which the activity at 10 µM with INS-1 cells stood at 184%.
The same measure, in the same setting: for `Cc1ccc(S(=O)(=O)Nc2ccccc2CCCCCc2ccccc2C(=O)O)c(C)c1` [Compound 151] the value was 190%.
Turning to `COc1cc(C)c(S(=O)(=O)Nc2ccccc2CCCCCc2ccccc2C(=O)O)c(C)c1C` [Compound 158], in experiment [1], the “Isolated islets 10^−5 M (stimulation factor of insulin secretion)” value is “+166%” and the “Isolated islets 10^−7 M (stimulation factor of insulin secretion)” value is “+135%”. Besides, the activity at 10 µM in the experiment on INS-1 cells amounted to 182%.
For the compound `CN(C)c1cccc2c(S(=O)(=O)Nc3ccccc3CCCCCc3ccccc3C(=O)O)cccc12` [Compound 159], the activity at 10 µM in the experiment with INS-1 cells is 269%.
In the case of `O=C(O)c1ccccc1CCc1ccc(NS(=O)(=O)c2ccc(Cl)cc2)cc1` [Compound 522, 2-{2-[4-(4-chlorobenzenesulfonylamino)phenyl]-ethyl}benzoic acid], the “ΔAUC insulin, treated versus diabetic controls (in words)” value in the experiment on n0-STZ/sucrose rats (OGTT 120 minutes) was “unchanged”. In addition, in the experiment on n0-STZ/sucrose rats (OGTT glucose 2 g/kg oral, 120 minutes, significant p<0.05), the “ΔAUC glucose down by, treated rats compared with the diabetic controls” value came out at 21%. In addition, in the experiment on n0-STZ/sucrose rats (treated rats, OGTT 120 minutes, diabetic controls 11417+/−1440), the “ΔAUC insulin (cumulative increase in insulinaemia above the basal value)” value was 14494 ± 665 pmol·min. The “ΔAUC glucose (cumulative increase in glycaemia above the basal value)” value with n0-STZ/sucrose rats (treated rats, OGTT 120 minutes, diabetic controls 33306+/−1403) was determined as 26438 ± 2255 mg·min/dL.
As to `CCS(=O)(=O)Nc1ccccc1CCCCCc1ccccc1C(=O)O` [Compound 157], the activity at 10 µM with INS-1 cells worked out at 203%.
Still for that read-out and setting: the figure for `O=C(O)c1ccccc1CCCc1ccccc1NS(=O)(=O)c1ccc2ccccc2c1` [Compound 117] is 175%; for `Cc1ccc(S(=O)(=O)Nc2ccccc2CCCCCc2ccccc2C(=O)O)cc1` [Compound 144] it is 191%; for `O=C(O)c1ccccc1CCc1ccccc1NS(=O)(=O)/C=C/c1ccccc1` [Compound 639] it is 144%.
In the case of `N#Cc1ccccc1S(=O)(=O)Nc1ccccc1CCc1ccccc1C(=O)O` [Compound 655], the activity at 10 µM with INS-1 cells was 147%.
On the same count and under the same terms, the figure for `O=C(O)c1ccccc1CCc1ccccc1NS(=O)(=O)c1ccc(S(=O)(=O)c2ccccc2)s1` [Compound 650] is 139%.
In the case of `O=C(O)c1ccccc1CCCCCc1ccccc1NS(=O)(=O)c1cccc2cccnc12` [Compound 168], in experiment [1], the “Isolated islets 10^−5 M (stimulation factor of insulin secretion)” value is given as “+236%” and the “Isolated islets 10^−7 M (stimulation factor of insulin secretion)” value is listed as “+169%”. Moreover, the activity at 10 µM in the experiment on INS-1 cells stood at 256%.
For the compound `Cc1ccc(S(=O)(=O)Nc2ccccc2CCCc2ccccc2C(=O)O)c(C)c1` [Compound 109], the activity at 10 µM in the experiment on INS-1 cells is 162%.
Consider `O=C(O)c1ccccc1CCCCCc1ccccc1NS(=O)(=O)c1ccccc1F` [Compound 152], for which the activity at 10 µM with INS-1 cells was 202%.
Still for that read-out and setting: the figure for `CCC(C)(C)c1ccc(S(=O)(=O)Nc2ccccc2CCc2ccccc2C(=O)O)cc1` [Compound 654] is 148%; for `CCCCc1ccc(S(=O)(=O)Nc2ccccc2CCc2ccccc2C(=O)O)cc1` [Compound 642] it is 140%; for `CC(C)c1ccc(S(=O)(=O)Nc2ccccc2CCCCCc2ccccc2C(=O)O)cc1` [Compound 164] it is 180%.
